From patent publication US4444786A, “Carbamate derivatives, insecticidal, miticidal or nematocidal compositions containing the same, and process for preparing the same” (priority 1981, dated 1984) come the findings set out here.

Data set [1] can be described thus: Test Example 5: acute toxicity by oral administration against male mice. As to conditions: mouse, in vivo, seventh day, Litchfield-Wilcoxon method. As to the method: The compound to be tested was evaluated in terms of acute toxicity by oral administration against male mice.
Data set [2] deals with tobacco cutworm (Spodoptera litura). The experiment in a line: Test Example 1: mortality of third-instar larvae of tobacco cutworm on cabbage, three days. Format: in vivo. The conditions noted are these: 72 h, 3 days; for mortality at 100 ppm: 100 ppm active ingredient; for mortality at 200 ppm: 200 ppm active ingredient; for mortality at 400 ppm: 400 ppm active ingredient. As to the method: Ten third-instar larvae of tobacco cutworm (Spodoptera litura) were placed on a cabbage (one-month-old seedlings) planted in a pot, and a 50% emulsion of the compound to be tested was diluted to a specified concentration and applied to the leaves of the plant to fully wet them. The test compound of each specified concentration was tested on two pots.

For data set [3], the system named is house fly (Musca domestica). Description: Test Example 4: local application to house fly, LD50 by Probit method. Format: in vivo. As to conditions: topical, 24 hours. As to the method: The compound to be tested was dissolved in a predetermined amount of acetone. The solution was diluted to various concentrations and locally applied to house fly (Musca domestica).

The subject of data set [4] is green rice leafhopper (Nephotettix cincticeps). Description: Test Example 2: mortality of female adults of green rice leafhopper on paddy rice, three days. As to conditions: 72 h, 3 days; for mortality at 200 ppm: 200 ppm active ingredient; for mortality at 400 ppm: 400 ppm active ingredient; for mortality at 800 ppm: 800 ppm active ingredient. The class given is in vivo. As to the method: An emulsion of specified concentration was prepared from a 50% wettable powder of the compound to be tested and applied to the leaves of paddy rice (one-month-old seedlings) planted in a pot to fully wet the leaves. After air-drying the emulsion, the pot was covered with a net cage, into which 10 female adults of green rice leafhopper (Nephotettix cincticeps) were released. The compound of each specified concentration was tested on two pots.

The term LD50 denotes the dose expected to kill half of the subjects tested. By mortality is commonly meant the percentage killed. A high value points to a strong lethal effect. `CCOC(=O)CCN(SN(C)C(=O)ON=C(C)SC)C(C)C` [Example 1, S-methyl N-[{N-methyl-N-(N-isopropyl-N-ethoxycarbonylethylaminosulfenyl)carbamoyl}oxy]thioacetamidate] displayed an LD50 at 168 h in data set [1] of 150 mg/kg. In data set [2], the mortality at 100 ppm worked out at 85%, the mortality at 200 ppm was determined as 90% and the mortality at 400 ppm came to 100%. In data set [3], this compound had a median lethal dose (LD50) of 16 mg/kg. In data set [4], this compound displayed a mortality at 200 ppm of 60%, a mortality at 400 ppm of 80% and a mortality at 800 ppm of 100%.
For the compound `CCOC(=O)CCN(CCC(=O)OCC)SN(C)C(=O)ON=C(C)SC` [Example 2, S-methyl N-[{N-methyl-N-(N,N-bis(ethoxycarbonylethyl)aminosulfenyl)carbamoyl}oxy]thioacetamidate], in data set [1], the LD50 at 168 h was found to be 300 mg/kg. In addition, in data set [2], the mortality at 100 ppm was found to be 75%, the mortality at 200 ppm was determined as 100% and the mortality at 400 ppm was found to be 100%. The LD50 in data set [3] was found to be 23 mg/kg. In data set [4], the mortality at 200 ppm was determined as 60%, the mortality at 400 ppm stood at 95% and the mortality at 800 ppm worked out at 100%.
Regarding `CCCCN(CC(=O)OCC)SN(C)C(=O)ON=C(C)SC` [Example 3], the LD50 at 168 h in data set [1] stood at 170 mg/kg. In data set [2], this compound returned a mortality at 100 ppm of 100%, a mortality at 200 ppm of 100% and a mortality at 400 ppm of 100%. The LD50 in data set [3] was found to be 8.5 mg/kg. In data set [4], this compound returned a mortality at 200 ppm of 80%, a mortality at 400 ppm of 100% and a mortality at 800 ppm of 100%.
In turn, `CCCN(CCC(=O)OCC)SN(C)C(=O)ON=C(C)SC` [Example 4] returned an LD50 at 168 h in data set [1] of 150 mg/kg. In data set [2], this compound displayed a mortality at 100 ppm of 100%, a mortality at 200 ppm of 100% and a mortality at 400 ppm of 100%. Also, the LD50 in data set [3] amounted to 11 mg/kg. In addition, in data set [4], the mortality at 200 ppm is 95%, the mortality at 400 ppm came out at 100% and the mortality at 800 ppm amounted to 100%.
In data set [1], `CCCCN(CCC(=O)OC)SN(C)C(=O)ON=C(C)SC` [Example 5] yielded an LD50 at 168 h of 150 mg/kg. For the same compound, in data set [2], the mortality at 100 ppm was determined as 100%, the mortality at 200 ppm worked out at 100% and the mortality at 400 ppm was 100%. For the same compound, in data set [3], the LD50 came out at 5 mg/kg. For the same compound, in data set [4], the mortality at 200 ppm amounted to 95%, the mortality at 400 ppm worked out at 100% and the mortality at 800 ppm stood at 100%.
On to `CCOC(=O)CCN(CC(C)C)SN(C)C(=O)ON=C(C)SC` [Example 6], for which, in data set [1], the LD50 at 168 h worked out at 170 mg/kg. In data set [2], this compound showed a mortality at 100 ppm of 70%, a mortality at 200 ppm of 95% and a mortality at 400 ppm of 100%. The LD50 in data set [3] is 7.6 mg/kg. In data set [4], this compound came in with a mortality at 200 ppm of 80%, a mortality at 400 ppm of 90% and a mortality at 800 ppm of 100%.
`CCOC(=O)CCN(SN(C)C(=O)ON=C(C)SC)C1CCCCC1` [Example 7]: the LD50 at 168 h in data set [1] is 200 mg/kg. Besides, in data set [2], the mortality at 100 ppm was 95%, the mortality at 200 ppm worked out at 100% and the mortality at 400 ppm was 100%. In data set [3], this compound returned a 50% lethal dose (LD50) of 18.3 mg/kg. In data set [4], this compound gave a mortality at 200 ppm of 65%, a mortality at 400 ppm of 100% and a mortality at 800 ppm of 100%.
Turning to `CCOC(=O)CCN(Cc1ccccc1)SN(C)C(=O)ON=C(C)SC` [Example 8], in data set [1], the median lethal dose (LD50) at 168 h is 250 mg/kg. In data set [2], the mortality at 100 ppm was 100%, the mortality at 200 ppm stood at 100% and the mortality at 400 ppm came out at 100%. The same compound gave an LD50 in data set [3] of 35.2 mg/kg. In data set [4], this compound came in with a mortality at 200 ppm of 75%, a mortality at 400 ppm of 100% and a mortality at 800 ppm of 100%.
Turning to `CCOC(=O)CCN(SN(C)C(=O)ON=C(C)SC)c1ccc(Cl)cc1` [Example 9], in data set [1], the LD50 at 168 h was determined as 250 mg/kg. Besides, in data set [2], the mortality at 100 ppm is 50%, the mortality at 200 ppm stood at 70% and the mortality at 400 ppm was 100%. The LD50 in data set [3] came out at 14 mg/kg. For the same compound, in data set [4], the mortality at 200 ppm was 70%, the mortality at 400 ppm amounted to 100% and the mortality at 800 ppm stood at 100%.
In data set [1], `CCOC(=O)CCN(SN(C)C(=O)ON=C(C)SC)c1cccc(C)c1` [Example 10] had a 50% lethal dose (LD50) at 168 h of 250 mg/kg. For the same compound, in data set [2], the mortality at 100 ppm is 60%, the mortality at 200 ppm amounted to 85% and the mortality at 400 ppm worked out at 100%. The same compound returned an LD50 in data set [3] of 29.5 mg/kg. Also, in data set [4], the mortality at 200 ppm amounted to 90%, the mortality at 400 ppm stood at 100% and the mortality at 800 ppm turned out to be 100%.
Regarding `CCOC(=O)CN(CC(=O)OCC)SN(C)C(=O)ON=C(C)SC` [Example 11], the LD50 at 168 h in data set [1] worked out at 300 mg/kg. In data set [2], this compound had a mortality at 100 ppm of 45%, a mortality at 200 ppm of 75% and a mortality at 400 ppm of 100%. Also, the LD50 in data set [3] was 47.3 mg/kg. Also, in data set [4], the mortality at 200 ppm stood at 60%, the mortality at 400 ppm was found to be 80% and the mortality at 800 ppm came out at 100%.
`CCOC(=O)CN(SN(C)C(=O)ON=C(C)SC)C(=O)OCC` [Example 12] gave a 50% lethal dose (LD50) at 168 h in data set [1] of 200 mg/kg. In addition, in data set [2], the mortality at 100 ppm was 100%, the mortality at 200 ppm came out at 100% and the mortality at 400 ppm amounted to 100%. In data set [3], this compound came in with a median lethal dose (LD50) of 28.7 mg/kg. In data set [4], this compound came in with a mortality at 200 ppm of 80%, a mortality at 400 ppm of 100% and a mortality at 800 ppm of 100%.
Take `CCOC(=O)CN(SN(C)C(=O)ON=C(C)SC)C(=O)CC` [Example 13]: the LD50 at 168 h in data set [1] is 200 mg/kg. Further, in data set [2], the mortality at 100 ppm stood at 75%, the mortality at 200 ppm came to 90% and the mortality at 400 ppm was 100%. In data set [3], this compound came in with an LD50 of 14.4 mg/kg. Also, in data set [4], the mortality at 200 ppm came out at 75%, the mortality at 400 ppm was found to be 100% and the mortality at 800 ppm was determined as 100%.
Compound `CCOC(=O)CN(SN(C)C(=O)ON=C(C)SC)S(=O)(=O)c1ccc(C)cc1` [Example 14] returned a median lethal dose (LD50) at 168 h in data set [1] of 250 mg/kg. Also, in data set [2], the mortality at 100 ppm was 60%, the mortality at 200 ppm is 80% and the mortality at 400 ppm amounted to 100%. For the same compound, in data set [3], the LD50 came to 33.3 mg/kg. In data set [4], the mortality at 200 ppm was found to be 80%, the mortality at 400 ppm stood at 100% and the mortality at 800 ppm amounted to 100%.
`CCCCOC(=O)CCN(SN(C)C(=O)ON=C(C)SC)C(C)C` [Example 15] registered an LD50 at 168 h in data set [1] of 280 mg/kg. In data set [2], this compound showed a mortality at 100 ppm of 75%, a mortality at 200 ppm of 95% and a mortality at 400 ppm of 100%. Further, the median lethal dose (LD50) in data set [3] amounted to 21.3 mg/kg. For the same compound, in data set [4], the mortality at 200 ppm amounted to 80%, the mortality at 400 ppm stood at 100% and the mortality at 800 ppm worked out at 100%.
In the case of `CCCCCCN(CCC(=O)OCC)SN(C)C(=O)ON=C(C)SC` [Example 16], in data set [1], the LD50 at 168 h amounted to 300 mg/kg. Further, in data set [2], the mortality at 100 ppm was 70%, the mortality at 200 ppm was 80% and the mortality at 400 ppm is 100%. Also, in data set [3], the LD50 turned out to be 32.5 mg/kg. Moreover, in data set [4], the mortality at 200 ppm amounted to 75%, the mortality at 400 ppm was 100% and the mortality at 800 ppm was 100%.
In the case of `CCCCC(CC)COC(=O)CCN(SN(C)C(=O)ON=C(C)SC)C(C)C` (stereo not shown) [Example 17], the LD50 at 168 h in data set [1] was 300 mg/kg. In data set [2], this compound registered a mortality at 100 ppm of 50%, a mortality at 200 ppm of 70% and a mortality at 400 ppm of 100%. The compound further displayed an LD50 in data set [3] of 42.4 mg/kg. For the same compound, in data set [4], the mortality at 200 ppm stood at 75%, the mortality at 400 ppm was 90% and the mortality at 800 ppm came out at 100%.
`CCCCCCCCN(CCC(=O)OCC)SN(C)C(=O)ON=C(C)SC` [Example 18]: the LD50 at 168 h in data set [1] worked out at 270 mg/kg. Further, in data set [2], the mortality at 100 ppm is 60%, the mortality at 200 ppm is 75% and the mortality at 400 ppm was determined as 100%. In data set [3], the LD50 was 35.6 mg/kg. In data set [4], this compound returned a mortality at 200 ppm of 75%, a mortality at 400 ppm of 90% and a mortality at 800 ppm of 100%.
Consider `CCOC(=O)CCN(SN(C)C(=O)ON=C(C)SC)c1ccc(OC)cc1` [Example 19], for which, in data set [1], the 50% lethal dose (LD50) at 168 h stood at 250 mg/kg. Also, in data set [2], the mortality at 100 ppm was 75%, the mortality at 200 ppm is 80% and the mortality at 400 ppm turned out to be 100%. For the same compound, the LD50 in data set [3] stood at 20.1 mg/kg. In data set [4], this compound had a mortality at 200 ppm of 80%, a mortality at 400 ppm of 100% and a mortality at 800 ppm of 100%.
`CCOC(=O)CCN(Cc1ccc(Cl)cc1)SN(C)C(=O)ON=C(C)SC` [Example 20] showed an LD50 at 168 h in data set [1] of 250 mg/kg. In data set [2], this compound returned a mortality at 100 ppm of 75%, a mortality at 200 ppm of 80% and a mortality at 400 ppm of 100%. The LD50 in data set [3] stood at 18.9 mg/kg. Further, in data set [4], the mortality at 200 ppm turned out to be 80%, the mortality at 400 ppm was 100% and the mortality at 800 ppm was found to be 100%.
